Data on eleven compounds can be found in US9221838B2, “Inhibitors of AKT activity” (ALMAC DISCOVERY LIMITED, priority 2009, dated 2015).

Structures are written as SMILES. pIC50: −log10 of the molar value.

One test deals with T1, AKT2 (Homo sapiens, UniProt P31751).
T1 construct: purchased SignalChem
Nature of the test: AKT Kinase Assay (IMAP fluorescent polarisation) vs AKT2. It counts as biochemical. The method in brief: (§1)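 Phosphorylation of FAM-Crosstide detected by IMAP binding and fluorescence polarisation (485/528 nm), with IC50 fitted from % inhibition versus vehicle. Compound was incubated 45 min with enzyme, then reacted 1 h at room temperature with ATP and peptide in Tris/MgCl2/DTT buffer. Dose response had fourteen half-log points.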

For a further test, the target named is T2, AKT1 (Homo sapiens, UniProt P31749).
T2 construct: purchased SignalChem
Nature of the test: AKT Kinase Assay (IMAP fluorescent polarisation) vs AKT1. Format: biochemical. The method in brief:
as §1

The subject of test [1] is PC3 and/or LnCaP cell lines. Nature of the test: in vitro cell proliferation assay (Cell Titre Glo). To be noted: Homo sapiens, read-out: inhibition of proliferation, IC50. It counts as cell-based. Here is the method: Testing of the compounds was also performed using in vitro cell proliferation assays:
Cell Titre Glo (Promega) is a highly sensitive homogeneous reagent used to determine the viability of cells. The reagent uses a stable form of luciferase to measure ATP as an output of viability. The luminescent values generated in the assay are directly proportional to the number of viable cells in your assay.
The following materials were used: White, clear bottomed 96 well assay plates (Costar); Cell titre Glo reagents; LnCaP (ECACC) cells grown in RPMI medium (Invitrogen) supplemented with 10 mM HEPES (Invitrogen), 1 mM Sodium pyruvate (Invitrogen), 2 mM L-Glutamine (Invitrogen) and 10% Foetal calf serum (Invitrogen); PC3 (ECACC) cells grown in RPMI medium supplemented with 10% Foetal calf serum (Invitrogen); Trypsin (Invitrogen); PBS (Invitrogen); Biotek Synergy 4 Hybrid Plate reader; 96 well plate shaker (Stuart SSL5); Eppendorf 5414 desk-top centrifuge; Beckman Coulter cell counter Z1 single threshold system.
Prostate cell lines, PC3 and LnCaP, were washed, detached and re-suspended in their respective fresh media. The cells were pelleted by centrifugation (Eppendorf 5414) and spent supernatant discarded. The cells were re-suspended by vortex mixing, counted and seeded into clear bottom white 96 well plates at a density of 5000 cells per well. The cells were incubated (Sanyo) overnight at 37° C. ([…]), and next day treated with increasing concentrations of test compound formulated in fresh medium. The plates were returned to the incubator for 72 hours. […]
The cell viability post compound treatment was determined by the luminescent intensity emitted from the drug treated wells in the plate. In brief, the assay plate was placed in the Biotex Synergy 4 Hybrid plate reader and the luminescence read in each well. The compound treated wells were compared to vehicle treated wells and the % inhibition of cell viability calculated.
The data was analysed using GraphPad Prism, with IC50 values generated using non-linear regression of the data set.

Another test addresses T3, AKT3 (Homo sapiens, UniProt Q9Y243).
T3 construct: purchased SignalChem
Nature of the test: AKT Kinase Assay (IMAP fluorescent polarisation) vs AKT3. It counts as biochemical. The method in brief: as §1

For a further test, the system named is GSK3β phosphorylation. Nature of the test: phosphorylation status of members of the AKT/PI3K pathway via ELISA. Format: cell-based. To be noted: measured at 48 h, read-out: inhibition of GSK3β phosphorylation, IC50. A general note: ELISA stands for enzyme-linked immunosorbent assay.

T2 sequence (P31749 whole entry): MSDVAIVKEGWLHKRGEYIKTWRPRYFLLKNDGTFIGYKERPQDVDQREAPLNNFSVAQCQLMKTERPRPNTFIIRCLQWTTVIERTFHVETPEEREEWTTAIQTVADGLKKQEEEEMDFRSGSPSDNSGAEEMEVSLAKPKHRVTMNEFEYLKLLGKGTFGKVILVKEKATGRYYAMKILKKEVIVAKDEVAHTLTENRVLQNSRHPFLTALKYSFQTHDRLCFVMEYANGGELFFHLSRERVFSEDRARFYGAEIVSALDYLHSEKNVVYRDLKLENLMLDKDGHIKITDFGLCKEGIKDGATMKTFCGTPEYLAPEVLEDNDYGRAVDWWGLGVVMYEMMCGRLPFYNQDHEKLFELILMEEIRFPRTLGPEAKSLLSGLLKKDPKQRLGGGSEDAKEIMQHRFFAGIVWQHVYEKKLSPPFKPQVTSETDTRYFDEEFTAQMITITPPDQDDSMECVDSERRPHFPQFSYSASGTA
T1 sequence (P31751 whole entry): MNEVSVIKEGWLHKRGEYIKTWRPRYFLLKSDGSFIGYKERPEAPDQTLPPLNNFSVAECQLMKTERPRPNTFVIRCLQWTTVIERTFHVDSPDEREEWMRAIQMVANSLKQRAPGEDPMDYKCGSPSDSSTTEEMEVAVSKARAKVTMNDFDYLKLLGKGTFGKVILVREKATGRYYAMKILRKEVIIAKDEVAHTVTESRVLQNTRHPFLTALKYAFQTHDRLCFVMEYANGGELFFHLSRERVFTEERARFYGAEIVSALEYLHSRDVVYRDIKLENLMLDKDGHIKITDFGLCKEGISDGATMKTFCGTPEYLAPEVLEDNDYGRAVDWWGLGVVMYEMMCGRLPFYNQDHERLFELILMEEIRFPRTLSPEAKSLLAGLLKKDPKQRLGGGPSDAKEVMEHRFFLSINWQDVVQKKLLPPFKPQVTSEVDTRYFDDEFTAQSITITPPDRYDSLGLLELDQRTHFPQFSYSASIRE
T3 sequence (Q9Y243 whole entry): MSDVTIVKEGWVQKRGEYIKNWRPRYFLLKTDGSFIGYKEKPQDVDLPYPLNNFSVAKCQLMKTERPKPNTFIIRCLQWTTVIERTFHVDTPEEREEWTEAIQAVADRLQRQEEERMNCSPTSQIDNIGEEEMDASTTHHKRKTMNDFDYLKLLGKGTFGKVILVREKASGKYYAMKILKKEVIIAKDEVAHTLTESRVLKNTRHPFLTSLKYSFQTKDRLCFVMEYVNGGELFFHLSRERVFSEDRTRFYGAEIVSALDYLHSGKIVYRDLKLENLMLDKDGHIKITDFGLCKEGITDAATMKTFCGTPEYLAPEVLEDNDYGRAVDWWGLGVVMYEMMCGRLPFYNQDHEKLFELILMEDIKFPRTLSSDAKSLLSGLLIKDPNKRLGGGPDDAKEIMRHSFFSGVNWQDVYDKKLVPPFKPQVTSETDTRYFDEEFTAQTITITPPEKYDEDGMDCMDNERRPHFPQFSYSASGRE

With `NC1(c2ccc(-c3nc4c(cc3-c3ccccc3)-c3nncn3CC4)cc2)CCC1` [Example 28, 1-(4-(9-phenyl-5,6-dihydro-[1,2,4]triazolo[3,4-f][1,6]naphthyridin-8-yl)phenyl)cyclobutanamine], the pIC50 is 6.00 to 7.00 at AKT2, 5.00 to 6.00 at AKT1, greater than 5.00 in test [1] and less than 5.00 on AKT3.
Consider `NC1(c2ccc(-c3nc4c(cc3-c3ccccc3)-c3n[nH]cc3CC4)cc2)CCC1` [Example 4, 1-(4-(8-phenyl-4,5-dihydro-2H-pyrazolo[3,4-f]quinolin-7-yl)phenyl)cyclobutanamine], for which the pIC50 was 6.00 to 7.00 on AKT2; greater than 7.00 with GSK3β phosphorylation; no less than 7.00 on AKT1; greater than 5.00 in test [1]; less than 5.00 at AKT3.
As to `CN1C(=O)COc2nc(-c3ccc(C4(N)CCC4)cc3)c(-c3ccccc3)cc21` [Example 31, 6-(4-(1-aminocyclobutyl)phenyl)-1-methyl-7-phenyl-1H-pyrido[2,3-b][1,4]oxazin-2(3H)-one], the pIC50 is 6.00 to 7.00 at AKT2, no less than 7.00 at AKT1, greater than 5.00 in test [1] and 5.00 to 6.00 at AKT3.
On to `NC1(c2ccc(-c3nc4c(cc3-c3ccccc3)NC(=O)CCN4)cc2)CCC1` [Example 104, 7-(4-(1-aminocyclobutyl)phenyl)-8-phenyl-4,5-dihydro-1H-pyrido[2,3-b][1,4]diazepin-2(3H)-one], for which the pIC50 is 5.00 to 6.00 at AKT2, 6.00 to 7.00 at AKT1 and less than 5.00 at AKT3.
Consider `NC1(c2ccc(-c3nc4c(cc3-c3ccccc3)N(CCF)C(=O)CCN4)cc2)CCC1` [Example 117, 7-(4-(1-aminocyclobutyl)phenyl)-1-(2-fluoroethyl)-8-phenyl-4,5-dihydro-1H-pyrido[2,3-b][1,4]diazepin-2(3H)-one], for which the pIC50 on AKT2, on AKT1 and at AKT3 was 5.00 to 6.00 in each case.
Take `NC1(c2ccc(-c3nc4c(cc3-c3ccccc3)-n3c(nn(CC(F)(F)F)c3=O)CO4)cc2)CCC1` [Example 103, 7-(4-(1-aminocyclobutyl)phenyl)-8-phenyl-2-(2,2,2-trifluoroethyl)-2,4-dihydro-1H-pyrido[2,3-b][1,2,4]triazolo[4,3-d][1,4]oxazin-1-one]: the pIC50 was 6.00 to 7.00 on AKT2, 5.00 to 6.00 at AKT1 and 5.00 to 6.00 at AKT3.
For `C[C@H]1Oc2nc(-c3ccc(C4(N)CCC4)cc3)c(-c3ccccc3)cc2N(C)C1=O` [Example 94, (R)-6-(4-(1-aminocyclobutyl)phenyl)-1,3-dimethyl-7phenyl-1H-pyrido[2,3-b][1,4]oxazin-2(3H)-one], the pIC50 at AKT2 is 5.00 to 6.00; on AKT1, 6.00 to 7.00; at AKT3, less than 5.00.
For `CC(C)c1nnc2n1-c1cc(-c3ccccc3)c(-c3ccc(C4(N)CCC4)cc3)nc1OC2` [Example 112, 1-(4-(1-isopropyl-8-phenyl-4H-pyrido[2,3-b][1,2,4]triazolo[4,3-d][1,4]oxazin-7-yl)phenyl)cyclobutanamine], the figures for the pIC50 on AKT2, on AKT1 and on AKT3 were 5.00 to 6.00, 6.00 to 7.00 and 5.00 to 6.00, respectively.
Consider `N#CCN1CCc2nc(-c3ccc(C4(N)CCC4)cc3)c(-c3ccccc3)cc2C1=O` [Example 24, 2-(2-(4-(1-aminocyclobutyl)phenyl)-5-oxo-3-phenyl-7,8-dihydro-1,6-naphthyridin-6(5H)-yl)acetonitrile], for which the pIC50 on AKT2 is 6.00 to 7.00; at AKT1, 5.00 to 6.00; on AKT3, less than 5.00.
Taken in the same sequence, the figures for `NC1(c2ccc(-c3nc4c(cc3-c3ccccc3)-c3n[nH]c(O)c3CC4)cc2)CCC1` [Example 7, 7-(4-(1-aminocyclobutyl)phenyl)-8-phenyl-4,5-dihydro-2H-pyrazolo[3,4f]quinolin-3-ol] were 5.00 to 6.00, no less than 7.00 and less than 5.00.
The matching figures for `N#CCn1nc2n(c1=O)-c1cc(-c3ccccc3)c(-c3ccc(C4(N)CCC4)cc3)nc1OC2` [Example 101, 2-(7-(4-(1-aminocyclobutyl)phenyl)-1-oxo-8-phenyl-1H-pyrido[2,3-b][1,2,4]triazolo[4,3-d][1,4]oxazin-2(4H)-yl)acetonitrile]: 6.00 to 7.00, 6.00 to 7.00 and 5.00 to 6.00.
